Test [1] deals with doxorubicin-induced aged C57BL6J mice. Nature of the test: Thrombosis (Serpine1, Plau, TIMP1 mRNA, tail bleeding time) in doxorubicin-aged mice, Example 22-10, Table 39. Format: in vivo, mouse. To be noted: for Plau mRNA / Serpine1 mRNA / TIMP1 mRNA: qRT-PCR, doxorubicin-induced aged mice, amount after aging calculated as 100%; for Tail amputation bleeding time: tail incised 5 mm from the tip, saline 37° C., untreated 51 (±3.6). On the procedure: Eight-week-old male C57BL6J mice (KRIBB Laboratory Animal Resource Center) were acclimated to the experimental environment for one week. Afterwards, the anticancer agent doxorubicin was administered intraperitoneally at a concentration of 10 mg/kg, inducing aging for more than 10 days. The aging-induced mice were randomly assigned to experimental and control groups. LX-403 was mixed with a 10% ethanol solution of PEG400 and administered orally at a concentration of 25 mg/kg or intradermally at a concentration of 1 μM for 21 days. LX-1801 was mixed in distilled water with 4% DMSO, 30% PEG300, and 5% Tween80 and administered intradermally at a concentration of 0.4 μM daily for 21 days. LX-2001 was mixed in PBS and administered intradermally at a concentration of 2 μM daily for 21 days. LX-2002 was mixed in distilled water with 4% DMSO, 30% PEG300, and 5% Tween80 and administered intradermally at a concentration of 2 μM daily for 21 days. […] LX-2005 was mixed in distilled water with 4% DMSO, 30% PEG300, and 5% Tween80 and administered intradermally at a concentration of 90 μM daily for 21 days. LX-2007 was mixed in distilled water with 4% DMSO, 30% PEG300, and 5% Tween80 and administered intradermally at a concentration of 90 μM daily for 21 days. […] LX-3002 was mixed in distilled water with 4% DMSO, 30% PEG300, and 5% Tween80 and administered orally at a concentration of 10 mg/kg daily for 21 days. […] LX-5411 was mixed in 5% phosphate-buffered saline (PBS) and administered orally at a concentration of 10 mg/kg daily for 21 days or intradermally at a concentration of 3 μM. LX-5701 was mixed in PBS and administered orally at a concentration of 360 mg/kg daily for 21 days. LX-6807 was mixed in saline and administered intraperitoneally at a concentration of 1 mg/kg daily for 21 days. The control group received only the solution in the same volume. After the end of drug administration, the methods described in each example below were performed.
Using cDNA synthesized using the same method as in Example 7-6 of WO2023-085787 A1, qRT-PCR was performed and analyzed for the liver-produced senescence-associated secretory factor (SASP) and hemostasis-related factors like Serpine1 (PAI1), Plau (Urokinase), and TIMP1. To determine whether the treatment affects in vivo hemostasis, tail bleeding time was analyzed in mice induced to age by chemotherapy. Specifically, for tail bleeding analysis, mice were anesthetized, and the tail was incised 5 mm from the tip with a razor blade. The bleeding tail was then placed in a 15 ml test tube containing saline preheated to 37° C., and the time until blood flow stopped was measured. The bleeding time was determined when bleeding stopped for 10 seconds. […] The qPT-PCR results were compared with the amounts of each factor after aging was induced, calculating the amount of each factor as 100% and then treating it with the test compound.

The test system of test [2] is naturally aged C57BL6J mice. Nature of the test: p16 mRNA in organs of naturally aged mice, Example 21-2, Table 18. Type of test: in vivo, mouse. Conditions: 22-month-old naturally aged mice, untreated aged = 100%. On the procedure:
22-month-old female C57BL6J mice (KRIBB Laboratory Animal Resource Center) were acclimated to the experimental environment for one week, after which the aged mice were randomly assigned to experimental and control groups. Eight-week-old, non-aged mice served as controls. LX-403 was mixed in a 10% ethanol solution of PEG400 and administered orally at a concentration of 25 mg/kg daily for 21 days, or administered to the skin, joints, or eyes at a concentration of 1 μM. LX-1801 was mixed in distilled water with 4% DMSO, 30% PEG300, and 5% Tween80 and administered to the skin, joints, or eyes at a concentration of 0.4 μM daily for 21 days. LX-2001 was mixed in PBS and administered to the skin, joints, or eyes at a concentration of […] daily for 21 days. LX-2002 was mixed in distilled water with 4% DMSO, 30% PEG300, and 5% Tween80 and administered to the skin, joints, or eyes at a concentration of 2 μM daily for 21 days. […] LX-2005 was mixed in distilled water with 4% DMSO, 30% PEG300, and 5% Tween80 and administered to the skin, joints, or eyes at a concentration of 90 μM daily for 21 days. LX-2007 was mixed in distilled water with 4% DMSO, 30% PEG300, and 5% Tween80 and administered to the skin, joints, or eyes at a concentration of 90 μM daily for 21 days. […] LX-3002 was mixed in distilled water with 4% DMSO, 30% PEG300, and 5% Tween80 and administered orally at a concentration of 10 mg/kg daily for 21 days. […] LX-5411 was mixed in 5% PBS and administered orally at a concentration of 10 mg/kg daily for 21 days or administered to the skin, joints, or eyes at a concentration of 3 μM. LX-5701 was mixed in PBS and administered orally at a concentration of 360 mg/kg daily for 21 days. LX-6807 was mixed in saline and administered intraperitoneally at a concentration of 1 mg/kg daily for 21 days. LX-2101 or LX-2102 was mixed in PBS solution with 5% DMSO and administered intraperitoneally at a concentration of 20 mg/kg or 10 mg/kg, respectively, daily for 21 days. The control group received only the solution in the same volume. After the end of drug administration, the methods described in each example below were performed.
Mice were sacrificed, and RNA was extracted from each organ tissue using the same method as in Example 7-2 of WO2023-085787 A1. qRT-PCR was performed with the synthesized cDNA. […] The amount of p16 mRNA after aging was calculated as 100% and compared with the amount of p16 mRNA after test compound treatment.

This is an account of results in US20260306460A1, “COMPOSITION FOR REMOVING AND INHIBITING SENESCENT CELLS, AND USES THEREOF” (LIFECEUTIX CO., LTD., priority 2023, published 2026).

In the case of `CCCC\C=C/C=C/C=C\CCCCCCCC(=O)O` [LX-2707, Punicic acid], in test [1], the “Plau mRNA” value is listed as 65 (±1.8) %, the “Serpine1 mRNA” value is 52 (±3.5) %, the “TIMP1 mRNA” value is given as 46 (±1.5) % and the “Tail amputation bleeding time” value is 80 (±4.3) sec.
Take `O=C1C2CCN(CC2)C1CNC(=O)C(F)(F)F` (stereo not drawn) [LX-5701]: in test [2] (Brain), the “p16 mRNA (%), Brain” value was determined as 71%. For the same molecule, the “p16 mRNA (%), Eye” value in test [2] (Eye) stood at 63%. The “p16 mRNA (%), Femur” value in test [2] (Femur) is 70%. For the same molecule, the “p16 mRNA (%), Heart” value in test [2] (Heart) is listed as 72%. For the same molecule, in test [2] (Kidney), the “p16 mRNA (%), Kidney” value amounted to 42%. Besides, the “p16 mRNA (%), Knee joint” value in test [2] (Knee joint) is given as 66%. In addition, the “p16 mRNA (%), Liver” value in test [2] (Liver) amounted to 34%. For the same molecule, the “p16 mRNA (%), Lung” value in test [2] (Lung) amounted to 58%. In addition, in test [2] (Muscle), the “p16 mRNA (%), Muscle” value stood at 64%. Also, in test [2] (Skin), the “p16 mRNA (%), Skin” value amounted to 75%. In addition, the “p16 mRNA (%), eWAT” value in test [2] (eWAT) worked out at 51%. Moreover, in test [1], the “Plau mRNA” value is reported as 53 (±13.9) %, the “Serpine1 mRNA” value is 45 (±20.1) %, the “TIMP1 mRNA” value is recorded as 53 (±11.2) % and the “Tail amputation bleeding time” value is 89 (±15.2) sec.
Consider Tocofersolan [LX-3001], for which, in test [1], the “Plau mRNA” value is on record as 69 (±2.2) %, the “Serpine1 mRNA” value is listed as 76 (±2.1) %, the “TIMP1 mRNA” value is on record as 73 (±3.1) % and the “Tail amputation bleeding time” value was 72 (±2.6) sec.
The corresponding values for `Cc1cccc([C@H](C)c2cnc[nH]2)c1C` [LX-6807, Dexmedetomidine] are 45 (±3.6) %, 31 (±1.9) %, 59 (±1.9) % and 93 (±6.4) sec.
